From ChEMBL document CHEMBL2202953, “Structure-based redesign of an edema toxin inhibitor” (Bioorg Med Chem, 2012)

Experiments:
[1] = molecular target: T1, Calmodulin-sensitive adenylate cyclase (Bacillus anthracis, UniProt P40136); type: cell-based, RAW264.7
T1 sequence (P40136 whole entry): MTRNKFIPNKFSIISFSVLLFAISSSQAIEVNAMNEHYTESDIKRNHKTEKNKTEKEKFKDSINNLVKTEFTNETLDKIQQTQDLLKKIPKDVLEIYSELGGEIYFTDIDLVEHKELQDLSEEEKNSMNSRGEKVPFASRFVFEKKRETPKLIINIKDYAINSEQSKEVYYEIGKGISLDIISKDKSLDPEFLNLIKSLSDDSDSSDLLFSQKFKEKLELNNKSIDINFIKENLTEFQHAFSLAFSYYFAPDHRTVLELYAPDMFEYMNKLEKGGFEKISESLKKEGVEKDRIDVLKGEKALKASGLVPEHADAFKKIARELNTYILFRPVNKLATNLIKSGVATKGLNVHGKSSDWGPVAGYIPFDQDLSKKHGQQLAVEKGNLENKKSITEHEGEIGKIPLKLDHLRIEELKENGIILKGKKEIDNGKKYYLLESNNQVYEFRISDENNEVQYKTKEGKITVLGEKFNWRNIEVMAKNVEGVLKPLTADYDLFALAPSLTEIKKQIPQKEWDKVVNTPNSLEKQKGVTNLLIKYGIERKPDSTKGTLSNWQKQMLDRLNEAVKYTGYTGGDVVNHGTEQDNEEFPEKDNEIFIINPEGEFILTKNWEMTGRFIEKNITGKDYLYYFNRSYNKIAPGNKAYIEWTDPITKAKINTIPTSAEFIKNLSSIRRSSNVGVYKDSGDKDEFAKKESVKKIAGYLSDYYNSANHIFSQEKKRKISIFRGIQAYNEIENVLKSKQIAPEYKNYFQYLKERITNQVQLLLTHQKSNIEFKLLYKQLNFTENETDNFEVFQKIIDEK

[2] = Cytotoxic activity against human GenM-C01 cells after 48 hrs; type: cell-based; details: genm-c01, 48 h
[3] = Genotoxicity against human GenM-T01 cells assessed as induction of GFP expression after 48 hrs by GADD45alpha-GFP assay; type: toxicity, cell-based; details: genm-t01, 48 h
Salmonella typhimurium [4] = assay: Mutagenicity in Salmonella typhimurium TA98 at 0.975 ug/mL to 1000 ug/mL after 48 hrs in absence of liver S9 fraction by Ames test; type: toxicity, organism-based; details: salmonella enterica subsp. enterica serovar typhimurium
Salmonella typhimurium [5] = assay: Mutagenicity in Salmonella typhimurium TA98 at 0.975 ug/mL to 1000 ug/mL after 48 hrs in presence of liver S9 fraction by Ames test; type: toxicity, organism-based; details: salmonella enterica subsp. enterica serovar typhimurium, s9, 48 h
Salmonella typhimurium [6] = assay: Mutagenicity in Salmonella typhimurium TAMix at 0.975 ug/mL to 1000 ug/mL after 48 hrs in absence of liver S9 fraction by Ames test; type: toxicity, organism-based; details: salmonella enterica subsp. enterica serovar typhimurium
Salmonella typhimurium [7] = assay: Mutagenicity in Salmonella typhimurium TAMix at 0.975 ug/mL to 1000 ug/mL after 48 hrs in presence of liver S9 fraction by Ames test; type: toxicity, organism-based; details: salmonella enterica subsp. enterica serovar typhimurium, s9, 48 h
[8] = Cytotoxic activity against human GenM-T01 cells after 24 hrs; type: cell-based; details: genm-t01, 24 h
[9] = Cytotoxic activity against human GenM-T01 cells after 48 hrs; type: cell-based; details: genm-t01, 48 h
[10] = Genotoxicity against human GenM-T01 cells assessed as induction of GFP expression after 24 hrs by GADD45alpha-GFP assay; type: toxicity, cell-based; details: genm-t01, 24 h

## O=C(Nc1cccc(OC(F)(F)F)c1)c1cccc2c1C(=O)c1ccccc1-2
[1]
  IC50: 6.8 µM

## Nc1ccc(NC(=O)c2cccc3c2C(=O)c2ccccc2-3)c(C(=O)O)c1
[1]
  IC50: 80 µM

## COC(=O)c1cc(NC(=O)c2cccc3c2C(=O)c2ccccc2-3)ccc1O
[1]
  IC50: > 100 µM

## O=C(O)c1cccc(NC(=O)c2cccc3c2C(=O)c2ccccc2-3)c1
[2]
  MTC: 62.5 µg/mL
[3]
  MTC: 62.5 µg/mL
Salmonella typhimurium [4]
  Activity: Non-toxic
Salmonella typhimurium [5]
  Activity: Non-toxic
Salmonella typhimurium [6]
  Activity: Non-toxic
Salmonella typhimurium [7]
  Activity: Non-toxic
[8]
  MTC: 62.5 µg/mL
[9]
  MTC: 62.5 µg/mL
[10]
  MTC: 62.5 µg/mL

## COC(=O)c1cccc(NC(=O)c2cccc3c2C(=O)c2ccccc2-3)c1
[1]
  IC50: 11 µM

## CSc1cccc(NC(=O)c2cccc3c2C(=O)c2ccccc2-3)c1
[1]
  IC50: 26 µM

## O=C(NO)c1cccc(NC(=O)c2cccc3c2C(=O)c2ccccc2-3)c1
[1]
  IC50: 12.9 µM

## Nc1ccc(NC(=O)c2cccc3c2C(=O)c2ccccc2-3)cc1C(=O)O
[1]
  IC50: 6.08 µM

## COC(=O)c1cccc(NC(=O)c2cccc(-c3ccccc3)c2)c1
[1]
  IC50: 19 µM

## O=C(O)c1cccc(NC(=O)c2cccc3c2C(=O)c2ccccc2-3)c1Cl
[1]
  IC50: 9.21 µM

## O=C(O)c1cccc(NC(=O)c2ccccc2)c1
[1]
  IC50: > 100 µM
